Each structure is given as a SMILES string.

Results on one compound are retold here after patent US9422239B1, “Dual PPAR-δ PPAR-γ agonists” (Auburn University, priority 2013, dated 2016).

In series [1] the test system is BDNF promoter in primary hippocampal neuronal cells. Nature of the series: BDNF promoter luciferase activity. To be noted: dose response curve. The format is cell-based, rat. An excerpt:
Primary hippocampal cells: Rat primary neuron cultures for luciferase assays as well as westerns and all other cell cultured assays are described herein. Rat primary neuron cultures can be generated from embryonic day 18-21 rat embryo (male and female) brains (Sprague Dawley) following known protocols. Briefly, the cortices, together with hippocampi, can be dissected and cells can be dissociated with 0.25% trypsin (Invitrogen), treated with 0.05% DNase I (Roche). To remove alternative cells and RBC's, tissue slurry can be allowed to sediment by gravity for 30 minutes at room temperature. Lower cellular suspension can then be plated on poly-D-lysine-coated dishes in Neurobasal A medium (Invitrogen) with B27 supplement (Invitrogen), penicillin (PAA Laboratories, 100 U/ml), streptomycin (PAA Laboratories, 0.1 mg/ml), and 1 mM L-glutamine (PAA Laboratories). Mitotic inhibitor 5-fluoro-2′-deoxyuridine (Sigma) can be added to the medium (10 μM) at 2 days in vitro (DIV) to remove fibroblast and astrocyte contamination. To test isolation purity for neurons, markers for neurons (MAP2) specificity can be measured by gene and western analysis.
Nine distinct transcriptional initiation sites exist: eight in the 5′ noncoding exon and one preceding coding exon IX, indicating nine different promoters control BDNF transcription sites. […]

The nature of series [2]: Biodistribution by LC-Mass Spectral analysis. Particulars: mice; for concentration at 4 h: mouse, po, 3 mg/kg, 3 mg/kg (table).
The test system of series [3] is H19-7 hippocampal cells. Nature of the series: BDNF, post synaptic markers and spine formation in H19-7 hippocampal cells. In kind it is cell-based. From the text: As shown in FIGS. 15A & B, reduced BDNF protein and gene expression is observed in db/db hippocampi which helps explain the observation that diabetes attenuates the expression of post synaptic receptor expression levels in db/db mice hippocampi.
As mentioned above, BDNF is known to induce synaptogenesis, spine density, and post synaptic receptor expression in neurons but has been previously shown to be reduced in AD brains.
The novel compounds (e.g., compound 9) have been developed as tools to better study the effects of PPARγ activation in the hippocampus upon cognition in AD.

Series [4] relates to 3T3-L1 adipocytes. The experiment in a line: Lipid accumulation by oil red-o staining. The format is cell-based. Particulars: 6 days, oil red-o stain. The protocol: 3T3L1 adipocytes were cultured and treated with the novel compounds for a period of 6 days. Lipid accumulation was determined by oil red-o staining, and measured the absorbance spectrophotometrically at a wavelength of 510 nm and standardized to total protein concentrations. Data from lipid accumulation studies were compared to cells treated with rosiglitazone (a full PPARγ agonist).

Series [5] relates to PPARγ/δ targets. The experiment in a line: mRNA analyses of PPARγ/δ targets in 3T3-L1 adipocytes. The format is cell-based. Particulars: 10 μM. From the text:
Compound 9 increased the gene expression of PPARγ targets MCAD, HSL, ATGL and adiponectin.

For the compound `Cc1ccc(CNCCCN(Cc2ccc(C(=O)O)cc2)Cc2cc(C(F)(F)F)cc(C(F)(F)F)c2)cc1` [Compound 9], in series [1], the “BDNF promoter activity (luciferase)” value was “inducing”. For the same compound, in series [2] (oral, 4 hours), the “Detection in the brain (crosses the blood brain barrier)” value is recorded as “detected”. In addition, the concentration at 4 h in series [2] (adipose, Concentration) amounted to 40.4 ng/mL; in series [2] (adipose, Tissue Concentration) it was 15.2 ng/mL; in series [2] (adipose, Tissue Distribution) it was 3.47 ng/mL; in series [2] (blood, Concentration), 144 ng/mL; in series [2] (brain, Concentration), 38.7 ng/mL; in series [2] (brain, Tissue Concentration), 17.2 ng/mL. Further, the concentration at 4 h in series [2] (brain, Tissue Distribution) amounted to 2.96 ng/mL; in series [2] (heart, Concentration) it was 22.1 ng/mL; in series [2] (heart, Tissue Concentration), 3.19 ng/mL; in series [2] (heart, Tissue Distribution), 1.35 ng/mL; in series [2] (liver, Concentration) it was 200 ng/mL; in series [2] (liver, Tissue Concentration) it was 24.8 ng/mL. For the same compound, the concentration at 4 h in series [2] (liver, Tissue Distribution) stood at 11.9 ng/mL. Also, in series [3] (H19-7 cells, western analysis), the “Post synaptic density marker PSD95 expression” value is “increase”. In addition, the BDNF expression entry in series [3] (H19 cells) is given as “increase”. In addition, in series [3] (H19 cells), the Spine formation entry is “promotes spine formation”. The Lipid accumulation entry in series [4] is “less lipid accumulation”; in series [4] (listed as compound 9), “negligible effects”. For the same compound, the “Expression of genes associated with lipid accumulation and synthesis (FATP, CD36, DGAT)” value in series [5] is reported as “marginally induced”. In addition, in series [5], the “Gene expression of PDK4” value was “increased”. Besides, the “Gene expression of PPARγ targets MCAD, HSL, ATGL and adiponectin” value in series [5] is “increased”.
